Several values for one entry are separate records, joined by “and”; a condition that tells them apart may be missing. Equal entries are not always repeated.
How the values were obtained:
[1] = system: Caspase 9; test: ELISA, Caspase 9 concentration; format: cell-based, human
Procedure: (§1) The concentrations of matrix metalloproteinase-2 (MMP2), matrix metalloproteinase-9 (MMP9), Bcl2, BAX, P53, Malondialdehyde (MDA), Glutathione (GSH), caspase 8, caspase 9 and IL-6 were measured quantitatively in 5c treated MCF7 and HEP2 cells using ELISA (Enzyme-Linked Immunosorbent Assay) (Table 4). Gelatinases are a collective word for MMP-2 and MMP-9, where MMP-2 is gelatinase-A and MMP-9 is gelatinase-B. Solid tumor invasion, metastasis, and angiogenesis have long been linked to gelatinases (Das et al. [2021]). […] Bcl2 is a crucial protein that targets apoptosis inhibition. It is regarded as a predictive biomarker or therapeutic target in the diagnosis of cancer due to its broad expression in a variety of cancers (Porter et al. [2009]). […] The pro-apoptotic protein BAX permeabilizes the mitochondrial outer membrane by changing from a cytosolic monomer to a hazardous oligomer triggering the apoptosis process (Fulda and Debatin [2006]). […] P53 transcription factor performs an essential tumor suppressor role by coordinating a wide range of physiological responses, including DNA repair, cell cycle arrest, cellular senescence, cell death, cell differentiation, and metabolism (Liebl and Hofmann [2021]). It was activated in MCF7 and HEP2-treated cells with values (4.28 and 3.109 ng/mL), respectively, compared to their controls (3.44 and 2.06 ng/mL). […]

[2] = system: Caspase 8; test: ELISA, Caspase 8 concentration; format: cell-based, human
Procedure: as §1

Structure (SMILES): COc1ccc(NC(=O)COc2ccc(C=CC(=O)c3cccs3)cc2)cc1 [Compound 5c, N-(4-Methoxyphenyl)-2-(4-(3-oxo-3-(thiophen-2-yl)prop-1-en-1-yl)phenoxy)acetamide]
- Caspase9 concentration ([1]; 5c treated HEP2 cells, untreated 3.70±0.18): 27.54 ng/mL and 27.54 ± 0.68 ng/mL
- Caspase9 concentration ([1]; 5c treated MCF7 cells, untreated 3.66±0.49): 28.03 ng/mL and 28.03 ± 0.49 ng/mL
- Caspase8 concentration ([2]; 5c treated HEP2 cells, untreated 0.187±0.025): 2.27 ng/mL and 2.27 ± 0.142 ng/mL
- Caspase8 concentration ([2]; 5c treated MCF7 cells, untreated 0.162±0.0203): 2.13 ng/mL and 2.13 ± 0.268 ng/mL

Reference: PMC11582173, “Synthesis, cytotoxicity, anti-inflammatory, anti-metastatic and anti-oxidant activities of novel chalcones incorporating 2-phenoxy-N-arylacetamide and thiophene moieties: induction of apoptosis in MCF7 and HEP2 cells” (Naunyn-Schmiedeberg's Archives of Pharmacology, 2024)
